Assay results published in patent US11117892B2, “Pyrrolo-pyridine derivative compound, method for preparing same, and pharmaceutical composition containing same as active ingredient for prevention or treatment of protein kinase-related diseases” (DAEGU-GYEONGBUK MEDICAL INNOVATION FOUNDATION, priority 2017, dated 2021).

How the values were obtained:
Experiment in all cases: scanMAX Kinase assay panel
Type in all cases: binding
Details in all cases: read-out: % control
[1] = biological target: ABL1(F317I)-nonphosphorylated (Homo sapiens (Human), UniProt P00519, F317I)
Method: (§1) DiscoverX Co. was asked to measure the enzyme (kinase) selectivity, and the experiment was performed using scanMAX™ Kinase assay panel.
(§2) (Example Compound−Positive Control)/(Negative Control−Positive Control)×100 [Equation 1]
(§3) Herein, the positive control indicates the compound showing the % control of 0%, and the negative control indicates DMSO showing the % control of 100%.

[2] = biological target: ABL1(H396P)-nonphosphorylated (Homo sapiens (Human), UniProt P00519, H396P)
Method: as §1, §2, §3

ABL1-nonphosphorylated = ABL1-nonphosphorylated (Homo sapiens (Human), UniProt P00519)
Method: as §1, §2, §3

ACVR1 = ACVR1 (Homo sapiens (Human), UniProt Q04771)
Method: as §1, §2, §3

BRSK1 = BRSK1 (Homo sapiens (Human), UniProt Q8TDC3)
Method: as §1, §2, §3

CAMKK2 = CAMKK2 (Homo sapiens (Human), UniProt Q96RR4)
Method: as §1, §2, §3

CDK3 = CDK3 (Homo sapiens (Human), UniProt Q00526)
Method: as §1, §2, §3

CSNK1G2 = CSNK1G2 (Homo sapiens (Human), UniProt P78368)
Method: as §1, §2, §3

DMPK = DMPK (Homo sapiens (Human), UniProt Q09013)
Method: as §1, §2, §3

DMPK2 = DMPK2 (Homo sapiens (Human), UniProt Q6DT37)
Method: as §1, §2, §3

ERK1 = ERK1 (Homo sapiens (Human), UniProt P27361)
Method: as §1, §2, §3

ERK3 = ERK3 (Homo sapiens (Human), UniProt Q16659)
Method: as §1, §2, §3

ERK4 = ERK4 (Homo sapiens (Human), UniProt P31152)
Method: as §1, §2, §3

FLT3(R834Q) = FLT3(R834Q) (Homo sapiens (Human), UniProt P36888, R834Q)
Method: as §1, §2, §3

GRK3 = GRK3 (Homo sapiens (Human), UniProt P35626)
Method: as §1, §2, §3

HASPIN = HASPIN (Homo sapiens (Human), UniProt Q8TF76)
Method: as §1, §2, §3

HPK1 = HPK1 (Homo sapiens (Human), UniProt Q92918)
Method: as §1, §2, §3

[3] = biological target: JAK1(JH1domain-catalytic) (Homo sapiens (Human), UniProt P23458)
Method: as §1, §2, §3

KIT(L576P) = KIT(L576P) (Homo sapiens (Human), UniProt P10721, L576P)
Method: as §1, §2, §3

LATS1 = LATS1 (Homo sapiens (Human), UniProt O95835)
Method: as §1, §2, §3

LIMK1 = LIMK1 (Homo sapiens (Human), UniProt P53667)
Method: as §1, §2, §3

LIMK2 = LIMK2 (Homo sapiens (Human), UniProt P53671)
Method: as §1, §2, §3

MAP3K2 = MAP3K2 (Homo sapiens (Human), UniProt Q9Y2U5)
Method: as §1, §2, §3

NEK7 = NEK7 (Homo sapiens (Human), UniProt Q8TDX7)
Method: as §1, §2, §3

PFTAIRE2 = PFTAIRE2 (Homo sapiens (Human), UniProt Q96Q40)
Method: as §1, §2, §3

PIK3CA(E545A) = PIK3CA(E545A) (Homo sapiens (Human), UniProt P42336, E545A)
Method: as §1, §2, §3

PIK3CA(E545K) = PIK3CA(E545K) (Homo sapiens (Human), UniProt P42336, E545K)
Method: as §1, §2, §3

PKAC-alpha = PKAC-alpha (Homo sapiens (Human), UniProt P17612)
Method: as §1, §2, §3

PRKG2 = PRKG2 (Homo sapiens (Human), UniProt Q13237)
Method: as §1, §2, §3

[4] = biological target: RSK3(Kin.Dom.1-N-terminal) (Homo sapiens (Human), UniProt Q15349)
Method: as §1, §2, §3

SGK = SGK (Homo sapiens (Human), UniProt O00141)
Method: as §1, §2, §3

SNARK = SNARK (Homo sapiens (Human), UniProt Q9H093)
Method: as §1, §2, §3

STK16 = STK16 (Homo sapiens (Human), UniProt O75716)
Method: as §1, §2, §3

TAOK1 = TAOK1 (Homo sapiens (Human), UniProt Q7L7X3)
Method: as §1, §2, §3

TGFBR2 = TGFBR2 (Homo sapiens (Human), UniProt P37173)
Method: as §1, §2, §3

YANK2 = YANK2 (Homo sapiens (Human), UniProt Q9NY57)
Method: as §1, §2, §3

YSK4 = YSK4 (Homo sapiens (Human), UniProt Q56UN5)
Method: as §1, §2, §3

ZAK = ZAK (Homo sapiens (Human), UniProt Q9NYL2)
Method: as §1, §2, §3

Chain of NEK7 (Q8TDX7 whole entry): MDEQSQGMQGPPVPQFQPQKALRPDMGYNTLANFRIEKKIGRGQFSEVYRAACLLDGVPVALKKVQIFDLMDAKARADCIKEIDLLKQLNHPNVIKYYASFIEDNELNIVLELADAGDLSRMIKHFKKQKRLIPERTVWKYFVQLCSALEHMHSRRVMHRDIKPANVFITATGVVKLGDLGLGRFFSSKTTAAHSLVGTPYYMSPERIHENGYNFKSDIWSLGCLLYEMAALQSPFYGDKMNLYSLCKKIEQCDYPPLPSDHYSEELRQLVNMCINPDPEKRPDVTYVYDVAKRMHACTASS
Chain of TGFBR2 (P37173 23-567): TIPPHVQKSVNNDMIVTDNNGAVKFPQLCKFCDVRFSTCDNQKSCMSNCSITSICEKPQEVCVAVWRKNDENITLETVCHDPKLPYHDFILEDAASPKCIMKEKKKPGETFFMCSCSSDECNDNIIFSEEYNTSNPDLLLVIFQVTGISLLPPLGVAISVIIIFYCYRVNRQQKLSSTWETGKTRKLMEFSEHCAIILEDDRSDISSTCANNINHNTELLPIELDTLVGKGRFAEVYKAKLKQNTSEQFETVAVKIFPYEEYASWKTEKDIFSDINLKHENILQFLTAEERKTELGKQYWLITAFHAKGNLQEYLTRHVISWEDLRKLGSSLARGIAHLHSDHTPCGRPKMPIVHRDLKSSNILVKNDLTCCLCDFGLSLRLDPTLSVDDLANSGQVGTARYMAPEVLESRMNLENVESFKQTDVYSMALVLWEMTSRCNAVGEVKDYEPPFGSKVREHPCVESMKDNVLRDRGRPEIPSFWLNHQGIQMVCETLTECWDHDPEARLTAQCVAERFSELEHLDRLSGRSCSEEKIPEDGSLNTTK
Chain of HASPIN (Q8TF76 whole entry): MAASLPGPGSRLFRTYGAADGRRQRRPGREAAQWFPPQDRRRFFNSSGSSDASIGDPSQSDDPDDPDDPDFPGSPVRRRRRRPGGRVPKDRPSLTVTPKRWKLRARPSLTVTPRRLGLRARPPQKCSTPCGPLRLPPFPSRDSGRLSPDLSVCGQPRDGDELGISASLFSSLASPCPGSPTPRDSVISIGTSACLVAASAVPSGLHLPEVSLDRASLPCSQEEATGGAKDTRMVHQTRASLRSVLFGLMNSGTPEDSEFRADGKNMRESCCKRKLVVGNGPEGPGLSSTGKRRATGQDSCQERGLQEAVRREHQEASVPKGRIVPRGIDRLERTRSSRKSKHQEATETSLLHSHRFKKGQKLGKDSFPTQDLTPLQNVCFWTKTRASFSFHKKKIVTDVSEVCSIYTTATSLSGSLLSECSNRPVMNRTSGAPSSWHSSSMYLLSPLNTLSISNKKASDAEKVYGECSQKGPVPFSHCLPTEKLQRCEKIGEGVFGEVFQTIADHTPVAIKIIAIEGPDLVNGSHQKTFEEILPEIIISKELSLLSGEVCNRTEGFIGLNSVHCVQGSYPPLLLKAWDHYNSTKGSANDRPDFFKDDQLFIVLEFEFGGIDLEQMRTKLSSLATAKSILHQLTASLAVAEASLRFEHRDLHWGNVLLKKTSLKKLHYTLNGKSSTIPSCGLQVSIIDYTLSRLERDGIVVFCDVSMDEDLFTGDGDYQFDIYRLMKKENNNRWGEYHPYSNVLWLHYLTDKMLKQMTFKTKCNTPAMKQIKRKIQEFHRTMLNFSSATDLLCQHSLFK
Chain of BRSK1 (Q8TDC3 whole entry): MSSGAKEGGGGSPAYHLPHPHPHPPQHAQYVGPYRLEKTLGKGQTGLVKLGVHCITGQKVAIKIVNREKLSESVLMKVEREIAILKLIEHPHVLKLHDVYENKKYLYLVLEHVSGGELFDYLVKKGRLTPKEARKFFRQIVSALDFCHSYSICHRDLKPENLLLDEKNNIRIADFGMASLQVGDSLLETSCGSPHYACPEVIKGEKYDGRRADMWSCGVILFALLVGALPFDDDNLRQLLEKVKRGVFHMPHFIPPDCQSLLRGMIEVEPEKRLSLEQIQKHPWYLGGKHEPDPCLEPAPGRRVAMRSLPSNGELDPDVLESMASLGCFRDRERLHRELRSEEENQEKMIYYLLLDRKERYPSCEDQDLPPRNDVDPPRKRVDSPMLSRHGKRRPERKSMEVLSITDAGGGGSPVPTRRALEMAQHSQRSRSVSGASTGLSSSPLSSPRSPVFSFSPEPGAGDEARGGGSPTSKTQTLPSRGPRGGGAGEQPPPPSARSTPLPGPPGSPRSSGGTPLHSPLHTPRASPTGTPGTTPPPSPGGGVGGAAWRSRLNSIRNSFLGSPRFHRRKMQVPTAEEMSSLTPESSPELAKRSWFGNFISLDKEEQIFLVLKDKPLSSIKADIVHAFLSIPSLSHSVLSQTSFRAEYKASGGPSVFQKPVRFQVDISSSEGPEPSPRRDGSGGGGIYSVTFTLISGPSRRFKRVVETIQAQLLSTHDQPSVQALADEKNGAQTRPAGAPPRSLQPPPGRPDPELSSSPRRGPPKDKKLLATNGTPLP
Chain of MAP3K2 (Q9Y2U5 whole entry): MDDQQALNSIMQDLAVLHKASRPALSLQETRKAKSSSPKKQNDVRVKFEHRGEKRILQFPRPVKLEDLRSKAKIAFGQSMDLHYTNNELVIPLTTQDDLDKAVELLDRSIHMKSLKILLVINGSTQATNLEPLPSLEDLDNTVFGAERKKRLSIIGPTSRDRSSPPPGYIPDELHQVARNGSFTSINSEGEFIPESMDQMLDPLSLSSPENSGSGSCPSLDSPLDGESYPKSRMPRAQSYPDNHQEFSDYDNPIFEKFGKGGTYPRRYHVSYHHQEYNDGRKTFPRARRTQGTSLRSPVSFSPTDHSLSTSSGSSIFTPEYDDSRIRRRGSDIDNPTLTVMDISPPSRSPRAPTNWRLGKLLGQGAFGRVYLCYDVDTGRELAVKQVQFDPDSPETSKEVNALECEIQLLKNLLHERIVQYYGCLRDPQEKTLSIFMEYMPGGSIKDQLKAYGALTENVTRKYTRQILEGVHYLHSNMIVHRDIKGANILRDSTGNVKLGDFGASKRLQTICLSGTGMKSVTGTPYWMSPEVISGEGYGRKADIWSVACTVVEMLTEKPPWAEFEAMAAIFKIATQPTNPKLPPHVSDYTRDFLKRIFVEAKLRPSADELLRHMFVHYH
Chain of JAK1(JH1domain-catalytic) (P23458 875-1153): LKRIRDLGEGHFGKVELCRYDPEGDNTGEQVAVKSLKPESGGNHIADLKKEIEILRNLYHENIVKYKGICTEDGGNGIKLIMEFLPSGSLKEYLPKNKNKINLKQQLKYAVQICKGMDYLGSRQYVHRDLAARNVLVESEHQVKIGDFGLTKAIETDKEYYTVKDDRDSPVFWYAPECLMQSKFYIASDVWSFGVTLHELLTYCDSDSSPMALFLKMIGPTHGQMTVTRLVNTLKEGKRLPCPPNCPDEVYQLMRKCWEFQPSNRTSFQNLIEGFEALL
Chain of ACVR1 (Q04771 21-509): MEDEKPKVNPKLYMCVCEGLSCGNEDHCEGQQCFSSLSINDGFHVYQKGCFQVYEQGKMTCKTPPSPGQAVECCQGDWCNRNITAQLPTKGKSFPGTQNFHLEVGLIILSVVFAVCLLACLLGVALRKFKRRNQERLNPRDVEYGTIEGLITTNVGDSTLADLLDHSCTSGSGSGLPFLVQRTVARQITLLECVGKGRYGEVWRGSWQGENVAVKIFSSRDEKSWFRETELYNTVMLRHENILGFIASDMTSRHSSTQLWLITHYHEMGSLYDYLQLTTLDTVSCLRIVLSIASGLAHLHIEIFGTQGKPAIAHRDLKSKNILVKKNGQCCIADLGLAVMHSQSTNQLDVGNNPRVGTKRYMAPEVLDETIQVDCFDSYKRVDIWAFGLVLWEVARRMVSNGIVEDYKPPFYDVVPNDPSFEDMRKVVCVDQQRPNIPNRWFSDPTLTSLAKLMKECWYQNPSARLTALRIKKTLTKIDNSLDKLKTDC
Chain of YANK2 (Q9NY57 whole entry): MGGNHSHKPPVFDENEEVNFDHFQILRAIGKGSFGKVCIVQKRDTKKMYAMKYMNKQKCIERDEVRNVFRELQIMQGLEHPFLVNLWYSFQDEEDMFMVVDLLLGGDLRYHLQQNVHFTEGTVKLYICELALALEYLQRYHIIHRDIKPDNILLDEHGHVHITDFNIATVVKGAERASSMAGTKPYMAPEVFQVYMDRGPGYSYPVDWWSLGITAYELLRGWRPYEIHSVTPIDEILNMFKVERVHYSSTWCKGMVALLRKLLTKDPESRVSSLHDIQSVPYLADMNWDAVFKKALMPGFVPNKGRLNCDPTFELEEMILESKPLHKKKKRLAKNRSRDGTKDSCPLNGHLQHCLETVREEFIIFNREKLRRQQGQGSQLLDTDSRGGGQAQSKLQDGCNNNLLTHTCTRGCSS
Chain of RSK3(Kin.Dom.1-N-terminal) (Q15349 59-318): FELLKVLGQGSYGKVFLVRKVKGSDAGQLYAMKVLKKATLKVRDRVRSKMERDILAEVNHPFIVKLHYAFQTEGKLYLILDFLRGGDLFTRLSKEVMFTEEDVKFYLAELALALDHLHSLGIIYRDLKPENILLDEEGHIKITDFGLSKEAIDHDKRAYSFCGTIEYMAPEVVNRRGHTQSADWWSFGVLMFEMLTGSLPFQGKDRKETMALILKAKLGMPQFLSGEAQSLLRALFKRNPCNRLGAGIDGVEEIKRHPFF
Chain of ERK1 (P27361 whole entry): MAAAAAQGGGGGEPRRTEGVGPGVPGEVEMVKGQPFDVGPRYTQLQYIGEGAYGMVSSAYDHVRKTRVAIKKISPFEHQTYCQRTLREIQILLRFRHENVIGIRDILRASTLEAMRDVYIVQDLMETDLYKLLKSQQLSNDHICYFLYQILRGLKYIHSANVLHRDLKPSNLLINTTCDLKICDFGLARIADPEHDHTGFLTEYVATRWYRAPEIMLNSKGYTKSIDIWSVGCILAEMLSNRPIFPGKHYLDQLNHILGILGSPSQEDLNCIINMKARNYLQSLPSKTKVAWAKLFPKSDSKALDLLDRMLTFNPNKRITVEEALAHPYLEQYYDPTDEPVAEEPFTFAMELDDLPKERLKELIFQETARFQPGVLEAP

**Q.** Which results are given for `CCNc1cc(Nc2ccc(C(=O)N3CCC(N4CCOCC4)CC3)cc2OC)nc2[nH]cc(C(F)(F)F)c12` [Example 57, (4-((4-(ethylamino)-3-(trifluoromethyl)-1H-pyrrolo[2,3-b]pyridin-6-yl)amino)-3-methoxyphenyl) (4-morpholinopiperidin-1-yl)methanone]?
**A.** remaining binding at 1 µM [1]: 96%; remaining binding at 1 µM [2]: 68%; remaining binding at 1 µM (ABL1-nonphosphorylated): 51%; remaining binding at 1 µM (ACVR1): 88%; remaining binding at 1 µM (BRSK1): 94%; remaining binding at 1 µM (CAMKK2): 49%; remaining binding at 1 µM (CDK3): 94%; remaining binding at 1 µM (CSNK1G2): 86%; remaining binding at 1 µM (DMPK): 100%; remaining binding at 1 µM (DMPK2): 96%; remaining binding at 1 µM (ERK1): 98%; remaining binding at 1 µM (ERK3): 94%; remaining binding at 1 µM (ERK4): 93%; remaining binding at 1 µM (FLT3(R834Q)): 100%; remaining binding at 1 µM (GRK3): 100%; remaining binding at 1 µM (HASPIN): 70%; remaining binding at 1 µM (HPK1): 91%; remaining binding at 1 µM [3]: 97%; remaining binding at 1 µM (KIT(L576P)): 100%; remaining binding at 1 µM (LATS1): 94%; remaining binding at 1 µM (LIMK1): 99%; remaining binding at 1 µM (LIMK2): 99%; remaining binding at 1 µM (MAP3K2): 100%; remaining binding at 1 µM (NEK7): 85%; remaining binding at 1 µM (PFTAIRE2): 94%; remaining binding at 1 µM (PIK3CA(E545A)): 77%; remaining binding at 1 µM (PIK3CA(E545K)): 73%; remaining binding at 1 µM (PKAC-alpha): 100%; remaining binding at 1 µM (PRKG2): 85%; remaining binding at 1 µM [4]: 75%; remaining binding at 1 µM (SGK): 100%; remaining binding at 1 µM (SNARK): 100%; remaining binding at 1 µM (STK16): 64%; remaining binding at 1 µM (TAOK1): 100%; remaining binding at 1 µM (TGFBR2): 97%; remaining binding at 1 µM (YANK2): 94%; remaining binding at 1 µM (YSK4): 100%; remaining binding at 1 µM (ZAK): 87%

**Q.** Which results are given for `CCNc1cc(Nc2ccc(C(=O)N3CCC(N4CCOCC4)CC3)cc2OC)nc2[nH]cc(C#N)c12` [Example 18, 4-(ethylamino)-6-((2-methoxy-4-(4-morpholinopiperidine-1-carbonyl)phenyl)amino)-1H-pyrrolo[2,3-b]pyridine-3-carbonitrile]?
**A.** remaining binding at 1 µM [1]: 89%; remaining binding at 1 µM [2]: 89%; remaining binding at 1 µM (ABL1-nonphosphorylated): 97%; remaining binding at 1 µM (ACVR1): 92%; remaining binding at 1 µM (BRSK1): 94%; remaining binding at 1 µM (CAMKK2): 52%; remaining binding at 1 µM (CDK3): 97%; remaining binding at 1 µM (CSNK1G2): 27%; remaining binding at 1 µM (DMPK): 81%; remaining binding at 1 µM (DMPK2): 85%; remaining binding at 1 µM (ERK1): 100%; remaining binding at 1 µM (ERK3): 85%; remaining binding at 1 µM (ERK4): 98%; remaining binding at 1 µM (FLT3(R834Q)): 92%; remaining binding at 1 µM (GRK3): 58%; remaining binding at 1 µM (HASPIN): 7.6%; remaining binding at 1 µM (HPK1): 76%; remaining binding at 1 µM [3]: 100%; remaining binding at 1 µM (KIT(L576P)): 77%; remaining binding at 1 µM (LATS1): 97%; remaining binding at 1 µM (LIMK1): 92%; remaining binding at 1 µM (LIMK2): 90%; remaining binding at 1 µM (MAP3K2): 79%; remaining binding at 1 µM (NEK7): 89%; remaining binding at 1 µM (PFTAIRE2): 79%; remaining binding at 1 µM (PIK3CA(E545A)): 100%; remaining binding at 1 µM (PIK3CA(E545K)): 92%; remaining binding at 1 µM (PKAC-alpha): 70%; remaining binding at 1 µM (PRKG2): 58%; remaining binding at 1 µM [4]: 92%; remaining binding at 1 µM (SGK): 64%; remaining binding at 1 µM (SNARK): 57%; remaining binding at 1 µM (STK16): 60%; remaining binding at 1 µM (TAOK1): 82%; remaining binding at 1 µM (TGFBR2): 100%; remaining binding at 1 µM (YANK2): 100%; remaining binding at 1 µM (YSK4): 6.7%; remaining binding at 1 µM (ZAK): 96%
